Test results taken from article PMC6047346 (Journal of medicinal chemistry, 2017).
Where two headings read alike, the source gives them in different places. One block for each molecule: values may come before it.

Key:
U937 cells [1] = details: cited from earlier work
SphK1 = details: both the rat and human enzymes; cited from earlier work
rats = details: cited from earlier work
human SphK1 = human SphK1 (Homo sapiens, UniProt Q9NYA1); assay: Sphingosine kinase assay, recombinant human SphK1, γ-[32P]ATP; details: for remaining activity at 0.3 µM: read-out: hSphK1 (SphK activity, % control, no inhibitor added)
human SphK2 = target: T1, human SphK2 (Homo sapiens, UniProt Q9NRA0); assay: Sphingosine kinase assay, recombinant human SphK2, γ-[32P]ATP; details: for inhibition at 0.3 µM: read-out: SphK2 inhibition (decrease of activity); for hSphK2 (SphK activity, % control, no inhibitor added): compounds at 0.3 μM, triplicate, 10 μM sphingosine, 250 μM γ-[32P]ATP
T1 sequence (Q9NRA0 1-654): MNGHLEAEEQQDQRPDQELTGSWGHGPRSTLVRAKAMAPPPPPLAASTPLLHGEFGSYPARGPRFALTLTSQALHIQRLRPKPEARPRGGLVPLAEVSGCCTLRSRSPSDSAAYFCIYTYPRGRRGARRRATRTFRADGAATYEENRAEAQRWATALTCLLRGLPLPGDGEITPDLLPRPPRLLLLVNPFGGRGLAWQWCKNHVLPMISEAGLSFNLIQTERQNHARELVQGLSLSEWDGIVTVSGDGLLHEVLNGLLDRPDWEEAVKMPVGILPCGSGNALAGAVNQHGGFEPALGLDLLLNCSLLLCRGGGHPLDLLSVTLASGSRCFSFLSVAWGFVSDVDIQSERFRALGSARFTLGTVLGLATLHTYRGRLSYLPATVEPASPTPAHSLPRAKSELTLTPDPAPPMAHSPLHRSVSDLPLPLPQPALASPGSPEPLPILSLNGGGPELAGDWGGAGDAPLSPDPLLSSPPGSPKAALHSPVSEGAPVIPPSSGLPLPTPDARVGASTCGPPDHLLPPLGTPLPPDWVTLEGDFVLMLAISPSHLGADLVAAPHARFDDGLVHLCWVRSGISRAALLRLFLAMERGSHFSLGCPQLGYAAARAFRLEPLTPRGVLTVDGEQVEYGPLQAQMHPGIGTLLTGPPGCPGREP

C57BL/6 mice = assay: Blood S1P levels in mice after ip dosing, LC-MS-MS; format: in vivo; details: single 10 mg/kg ip dose
U937 cells [2] = assay: Sphingolipid; format: cell-based, human; details: 2 h incubation, LC-MS-MS
[3] = read-out: hSphK2 (SphK activity, % control, no inhibitor added)
[4] = read-out: SphK2 activity remaining

Sequence of human SphK1 (Q9NYA1 whole entry): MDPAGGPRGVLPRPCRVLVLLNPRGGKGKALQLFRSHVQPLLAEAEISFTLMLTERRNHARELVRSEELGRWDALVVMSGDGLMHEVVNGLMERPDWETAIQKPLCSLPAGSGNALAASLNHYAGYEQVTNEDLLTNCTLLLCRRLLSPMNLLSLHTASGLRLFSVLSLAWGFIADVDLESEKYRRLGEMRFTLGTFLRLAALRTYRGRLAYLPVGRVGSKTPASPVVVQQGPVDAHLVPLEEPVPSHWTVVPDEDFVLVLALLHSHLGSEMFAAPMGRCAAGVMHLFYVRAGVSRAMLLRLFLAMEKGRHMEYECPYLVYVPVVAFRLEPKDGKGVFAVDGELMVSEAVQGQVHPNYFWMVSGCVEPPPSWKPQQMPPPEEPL

Molecule: CCCCCCCCc1ccc(-c2noc(C[C@@H]3CCCN3C(=N)N)n2)cc1 [Compound 3]
S1P levels in cultured human U937 leukemia cells (U937 cells [1]): reduce S1P levels
selectivity for SphK1 over SphK2 (SphK1): > 100 fold
S1P levels in the bloodstream of rats (rats): reduce S1P levels

Molecule: Cl.N=C(N)N1CCC[C@H]1Cc1nc(-c2ccc(Nc3nc(-c4ccccc4)cs3)cc2)no1 [Compound 20a, (S)-amino(2-((3-(4-((4-phenylthiazol-2-yl)amino)phenyl)-1,2,4-oxadiazol-5-yl)methyl)pyrrolidin-1-yl)methaniminium chloride]
SphK1 inhibition, in words (human SphK1; screen at 0.3 μM): poor inhibition
SphK2 inhibition, in words (human SphK2; screen at 0.3 μM): poor inhibition

Molecule: N=C(N)N1CCC[C@H]1Cc1nc(-c2ccc(Nc3nc(-c4ccncc4)cs3)cc2)no1.O=C(O)C(F)(F)F [Compound 20b, (S)-amino(2-((3-(4-((4-(pyridin-4-yl)thiazol-2-yl)amino)phenyl)-1,2,4-oxadiazol-5-yl)methyl)pyrrolidin-1-yl)methaniminium trifluoroacetate]
SphK1 inhibition, in words (human SphK1; screen at 0.3 μM): inactive
SphK2 inhibition, in words (human SphK2; screen at 0.3 μM): inactive

Molecule: Cl.N=C(N)N1CCC[C@H]1Cc1nc(-c2ccc(Nc3nc(-c4cc(C(F)(F)F)cc(C(F)(F)F)c4)cs3)cc2)no1 [Compound 20bb, (S)-amino(2-((3-(4-((4-(3,5-bis(trifluoromethyl)phenyl)thiazol-2-yl)amino)phenyl)-1,2,4-oxadiazol-5-yl)methyl)pyrrolidin-1-yl)methaniminium chloride]
SphK1 inhibition, in words (human SphK1; concentrations up to 1 μM): inactive

Molecule: Cl.N=C(N)N1CCC[C@H]1Cc1nc(-c2ccc(Nc3nc(-c4cccnc4)cs3)cc2)no1 [Compound 20c, (S)-amino(2-((3-(4-((4-(pyridin-3-yl)thiazol-2-yl)amino)phenyl)-1,2,4-oxadiazol-5-yl)methyl)pyrrolidin-1-yl)methaniminium chloride]
SphK1 inhibition, in words (human SphK1; screen at 0.3 μM): inactive
SphK2 inhibition, in words (human SphK2; screen at 0.3 μM): inactive

Molecule: Cl.N=C(N)N1CCC[C@H]1Cc1nc(-c2ccc(Nc3nc(-c4ccc(-c5ccccc5)cc4)cs3)cc2)no1 [Compound 20dd, (S)-(2-((3-(4-((4-([1,1′-biphenyl]-4-yl)thiazol-2-yl)amino)phenyl)-1,2,4-oxadiazol-5-yl)methyl)pyrrolidin-1-yl)(amino)methaniminium chloride]
blood S1P levels (C57BL/6 mice; after 24 hours): returned to basal levels
blood S1P levels (C57BL/6 mice; two and six hour time points): increased
S1P levels in U937 cells (U937 cells [2]): concentration-dependent decrease
Sph (sphingosine) levels in U937 cells (U937 cells [2]): remained constant

Molecule: Cl.N=C(N)N1CCC[C@H]1Cc1nc(-c2ccc(Nc3nc(-c4cccc(C(F)(F)F)c4)cs3)cc2)no1 [Compound 20l, (S)-amino(2-((3-(4-((4-(3-(trifluoromethyl)phenyl)thiazol-2-yl)amino)phenyl)-1,2,4-oxadiazol-5-yl)methyl)pyrrolidin-1-yl)methaniminium chloride]
S1P levels in U937 cells (U937 cells [2]): concentration-dependent decrease
Sph (sphingosine) levels in U937 cells (U937 cells [2]): remained constant

Molecule: (S)-(2-((3-(4-((4-([1,1′-biphenyl]-4-yl)thiazol-2-yl)amino)phenyl)-1,2,4-oxadiazol-5-yl)methyl)pyrrolidin-1-yl)(amino)methaniminium chloride [Compound 34]
hSphK2 (SphK activity, % control, no inhibitor added) (human SphK2): 100 ±5 % control
SphK2 inhibition, in words (human SphK2; concentrations up to 1 μM): completely inactive

Molecule: (S)-amino(2-((3-(4-((4-(benzofuran-2-yl)thiazol-2-yl)amino)phenyl)-1,2,4-oxadiazol-5-yl)methyl)pyrrolidin-1-yl)methaniminium chloride [Compound 20ee]
hSphK2 (SphK activity, % control, no inhibitor added) (human SphK2): 67 ±5 % control

The next lines start with the values.

remaining activity at 0.3 µM (human SphK1): 89 ± 0.7%
inhibition at 0.3 µM (human SphK2): < 30%
remaining activity at 0.3 µM (human SphK2; [3]): 44 ± 12%
Molecule: Cc1ccc(-c2csc(Nc3ccc(-c4noc(C[C@@H]5CCCN5C(=N)N)n4)cc3)n2)cc1 [Compound 20n, (S)-amino(2-((3-(4-((4-(p-tolyl)thiazol-2-yl)amino)phenyl)-1,2,4-oxadiazol-5-yl)methyl)pyrrolidin-1-yl)methaniminium chloride]

remaining activity at 0.3 µM (human SphK1): 58 ± 4%
inhibition at 0.3 µM (human SphK2): < 30%
remaining activity at 0.3 µM (human SphK2; [3]): 82 ± 6%
Molecule: COc1ccc(-c2csc(Nc3ccc(-c4noc(C[C@@H]5CCCN5C(=N)N)n4)cc3)n2)cc1 [Compound 20o, (S)-amino(2-((3-(4-((4-(4-methoxyphenyl)thiazol-2-yl)amino)phenyl)-1,2,4-oxadiazol-5-yl)methyl)pyrrolidin-1-yl)methaniminium chloride]

remaining activity at 0.3 µM (human SphK1): 75 ± 0.2%
inhibition at 0.3 µM (human SphK2): < 30%
remaining activity at 0.3 µM (human SphK2; [3]): 80 ± 7%
Molecule: CCOc1ccc(-c2csc(Nc3ccc(-c4noc(C[C@@H]5CCCN5C(=N)N)n4)cc3)n2)cc1 [Compound 20p, (S)-amino(2-((3-(4-((4-(4-ethoxyphenyl)thiazol-2-yl)amino)phenyl)-1,2,4-oxadiazol-5-yl)methyl)pyrrolidin-1-yl)methaniminium chloride]

remaining activity at 0.3 µM (human SphK2; [4]): ~40%
remaining activity at 0.3 µM (human SphK2; [3]): 84 ± 2%
Molecule: N=C(N)N1CCC[C@H]1Cc1nc(-c2ccc(Nc3nc(-c4ccc(OC(F)(F)F)cc4)cs3)cc2)no1 [Compound 20r, (S)-amino(2-((3-(4-((4-(4-(trifluoromethoxy)phenyl)thiazol-2-yl)amino)phenyl)-1,2,4-oxadiazol-5-yl)methyl)pyrrolidin-1-yl)methaniminium chloride]

remaining activity at 0.3 µM (human SphK1): 90 ± 1%
remaining activity at 0.3 µM (human SphK2; [3]): 100 ± 2%
Molecule: N=C(N)N1CCC[C@H]1Cc1nc(-c2ccc(Nc3nc(-c4cccc(OC(F)(F)F)c4)cs3)cc2)no1 [Compound 20s, (S)-amino(2-((3-(4-((4-(3-(trifluoromethoxy)phenyl)thiazol-2-yl)amino)phenyl)-1,2,4-oxadiazol-5-yl)methyl)pyrrolidin-1-yl)methaniminium chloride]

SphK1 inhibition, in words (human SphK1; screen at 0.3 μM): no SphK1 inhibition
remaining activity at 0.3 µM (human SphK2; [4]): ~70%
Molecule: COc1ccc(-c2csc(Nc3ccc(-c4noc(C[C@@H]5CCCN5C(=N)N)n4)cc3)n2)cc1Cl.Cl [Compound 20v, (S)-amino(2-((3-(4-((4-(3-chloro-4-methoxyphenyl)thiazol-2-yl)amino)phenyl)-1,2,4-oxadiazol-5-yl)methyl)pyrrolidin-1-yl)methaniminium chloride]

SphK1 inhibition, in words (human SphK1; screen at 0.3 μM): inactive
SphK2 inhibition, in words (human SphK2; screen at 0.3 μM): inactive
Molecule: Cl.N=C(N)N1CCC[C@H]1Cc1nc(-c2ccc(Nc3nc(-c4ccc(-c5ccc(C(F)(F)F)cc5)cc4)cs3)cc2)no1 [Compound 23c, (S)-amino(2-((3-(4-((4-(4′-(trifluoromethyl)-[1,1′-biphenyl]-4-yl)thiazol-2-yl)amino)phenyl)-1,2,4-oxadiazol-5-yl)methyl)pyrrolidin-1-yl)methaniminium chloride]

SphK1 inhibition, in words (human SphK1; screen at 0.3 μM): inactive
SphK2 inhibition, in words (human SphK2; screen at 0.3 μM): inactive
Molecule: Cl.N=C(N)N1CCC[C@H]1Cc1nc(-c2ccc(Nc3nc(-c4ccc(-c5cccc(C(F)(F)F)c5)cc4)cs3)cc2)no1 [Compound 23d, (S)-amino(2-((3-(4-((4-(3′-(trifluoromethyl)-[1,1′-biphenyl]-4-yl)thiazol-2-yl)amino)phenyl)-1,2,4-oxadiazol-5-yl)methyl)pyrrolidin-1-yl)methaniminium chloride]

inhibition at 0.3 µM (human SphK1; read-out: SphK1 inhibition (decrease of activity)): ~45%
inhibition at 0.3 µM (human SphK2): ~45%
Molecule: N=C(N)N1CCC[C@H]1Cc1nc(-c2ccc(Oc3nc(-c4ccc(C(F)(F)F)cc4)cs3)cc2)no1 [Compound 31, (S)-amino(2-((3-(4-((4-(4-(trifluoromethyl)phenyl)thiazol-2-yl)oxy)phenyl)-1,2,4-oxadiazol-5-yl)methyl)pyrrolidin-1-yl)methaniminium chloride]
